Where “and” joins values, the source holds several entries; their conditions need not be identical. Equal entries are not always repeated. Inconclusive results and toxic doses are left out. Cut-off read from the data, not from the text of the source: active = T/C of 150% or more; inactive = T/C below 125%.
System: L1210 leukemia ip in BDF1 mice, survival T/C
Test: NCI In Vivo Anticancer Drug Screen. Data for tumor model L1210 Leukemia (intraperitoneal) in B6D2F1 (BDF1) mice
Conditions: endpoint: mean survival time, higher = longer survival
How it was run: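 Tumor cells were implanted, animals were treated, and survival was followed. The result divides the treated measurement by the vehicle-control measurement.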

[1] = dose: 200.0 mg/kg/injection, schedule: Q04DX002 (ip), vehicle: saline with Tween-80
[2] = dose: 400.0 mg/kg/injection, schedule: Q04DX002 (ip), vehicle: saline with Tween-80
[3] = dose: 100.0 mg/kg/injection, schedule: Q01DX009 (ip), vehicle: Klucel (hydroxypropylcellulose) (HPC)
[4] = dose: 100.0 mg/kg/injection, schedule: Q04DX003 (ip), vehicle: Klucel (hydroxypropylcellulose) (HPC)
[5] = dose: 200.0 mg/kg/injection, schedule: Q01DX009 (ip), vehicle: Klucel (hydroxypropylcellulose) (HPC)
[6] = dose: 200.0 mg/kg/injection, schedule: Q04DX003 (ip), vehicle: Klucel (hydroxypropylcellulose) (HPC)
[7] = dose: 400.0 mg/kg/injection, schedule: Q01DX009 (ip), vehicle: Klucel (hydroxypropylcellulose) (HPC)

Measured: T/C

O=C(COc1ccccc1)NCCNC(=S)Nc1ccccc1
inactive: dose: 100.0 mg/kg/injection, schedule: Q01DX001 (ip), vehicle: saline with Tween-80 102 % of control | dose: 200.0 mg/kg/injection, schedule: Q01DX001 (ip), vehicle: saline with Tween-80 94 % of control | dose: 400.0 mg/kg/injection, schedule: Q01DX001 (ip), vehicle: saline with Tween-80 112 % of control

CCCCCCC1CC(=O)CC(=O)C1
inactive: dose: 100.0 mg/kg/injection, schedule: Q01DX001 (ip), vehicle: saline 101 % of control | dose: 200.0 mg/kg/injection, schedule: Q01DX001 (ip), vehicle: saline 98 % of control | dose: 400.0 mg/kg/injection, schedule: Q01DX001 (ip), vehicle: saline 95 % of control

CCC12CC3(C(=O)OC)OC1C(O)CN1CCc4c(n3c3cc(OC)ccc43)C12 (stereo unspecified)
inactive: dose: 6.25 mg/kg/injection, schedule: Q04DX002 (ip), vehicle: saline with Tween-80 100 % of control | dose: 12.5 mg/kg/injection, schedule: Q04DX002 (ip), vehicle: saline with Tween-80 107 % of control | dose: 25.0 mg/kg/injection, schedule: Q04DX002 (ip), vehicle: saline with Tween-80 103 % of control | dose: 50.0 mg/kg/injection, schedule: Q04DX002 (ip), vehicle: saline with Tween-80 100 % of control and 86 % of control | [1] 89 % of control | [2] 89 % of control

C[CH2][Ge]1([CH2]C)[CH2]CC2(C[CH2]1)CN(CCCN(C)C)CN2
inactive: dose: 100.0 mg/kg/injection, schedule: Q04DX002 (ip), vehicle: saline 103 % of control

CSCc1cnc(N)nc1-c1ccccc1
inactive: dose: 100.0 mg/kg/injection, schedule: Q04DX003 (ip), vehicle: saline with Tween-80 105 % of control | dose: 200.0 mg/kg/injection, schedule: Q04DX003 (ip), vehicle: saline with Tween-80 97 % of control | dose: 400.0 mg/kg/injection, schedule: Q04DX003 (ip), vehicle: saline with Tween-80 105 % of control

NC(=O)C#CC(N)=O
inactive: [3] 97 % of control | [4] 95 % of control | [5] 109 % of control | [6] 97 % of control | [7] 92 % of control | dose: 400.0 mg/kg/injection, schedule: Q04DX003 (ip), vehicle: Klucel (hydroxypropylcellulose) (HPC) 92 % of control

CCOc1nc(N)c(C(N)=O)cc1C#N
inactive: dose: 100.0 mg/kg/injection, schedule: Q04DX003 (ip), vehicle: saline sonified 98 % of control | dose: 200.0 mg/kg/injection, schedule: Q04DX003 (ip), vehicle: saline sonified 105 % of control

C[N+]1(C)CCC[N+](C)(C)CC1
inactive: dose: 55.0 mg/kg/injection, schedule: Q01DX Z (ip), vehicle: saline 95 % of control | dose: 83.0 mg/kg/injection, schedule: Q01DX Z (ip), vehicle: saline 98 % of control | dose: 125.0 mg/kg/injection, schedule: Q01DX Z (ip), vehicle: saline 103 % of control

COc1ccc(OC)c(NC(=O)Nc2ccc(C(=O)O)cc2)c1
inactive: [3] 109 % of control | [5] 96 % of control | [7] 96 % of control

c1coc(CCc2nc3ccccc3[nH]2)c1
inactive: dose: 50.0 mg/kg/injection, schedule: Q01DX009 (ip), vehicle: Klucel (hydroxypropylcellulose) (HPC) 121 % of control | [3] 116 % of control | [4] 96 % of control | [5] 100 % of control | [6] 100 % of control

Oc1c(Br)cc(Br)cc1C=NCC1CCC(CN=Cc2cc(Br)cc(Br)c2O)CC1 (stereo unspecified)
inactive: dose: 100.0 mg/kg/injection, schedule: Q01DX009 (ip), vehicle: saline with Tween-80 92 % of control | dose: 100.0 mg/kg/injection, schedule: Q04DX002 (ip), vehicle: saline with Tween-80 110 % of control and 90 % of control | [1] 96 % of control and 90 % of control | dose: 400.0 mg/kg/injection, schedule: Q01DX009 (ip), vehicle: saline with Tween-80 92 % of control and 94 % of control | [2] 106 % of control and 90 % of control

Cc1cc(=S)n(C)c2ccccc12
inactive: dose: 100.0 mg/kg/injection, schedule: Q01DX001 (ip), vehicle: carboxymethylcellulose (CMC) 89 % of control | dose: 200.0 mg/kg/injection, schedule: Q01DX001 (ip), vehicle: carboxymethylcellulose (CMC) 89 % of control | dose: 400.0 mg/kg/injection, schedule: Q01DX001 (ip), vehicle: carboxymethylcellulose (CMC) 96 % of control

COc1ccc(CN(CCc2ccc(O)cc2)C(=O)C(F)(F)F)cc1O
inactive: dose: 100.0 mg/kg/injection, schedule: Q01DX001 (ip), vehicle: Klucel (hydroxypropylcellulose) (HPC) 91 % of control | dose: 200.0 mg/kg/injection, schedule: Q01DX001 (ip), vehicle: Klucel (hydroxypropylcellulose) (HPC) 89 % of control | dose: 400.0 mg/kg/injection, schedule: Q01DX001 (ip), vehicle: Klucel (hydroxypropylcellulose) (HPC) 87 % of control

Source: PubChem BioAssay AID248 (DTP/NCI, 2004)
